Assay results taken from paper PMC12736951, “Design, Synthesis, and Biological Evaluation of 6″-Modified Apramycin Derivatives to Overcome Aminoglycoside Resistance” (Pharmaceutics, 2025).

Assays:
E. coli JW5503 kanS = assay: MIC against E. coli JW5503 parent strain; format: cell-based; conditions: Escherichia coli, JW5503KANS
Description: (§1) The determination of the MIC values was performed on five strains from the working collection of MSU. E. coli JW5503 [25], which lacked a kanamycin resistance cassette that had been removed as per the method outlined in [26], and a strain derived from this strain through in vitro selection with kanamycin. […] Strains containing AG-modifying enzymes were obtained through the transformation of E. coli JW5503 with plasmids that carried cassettes of resistance, namely pCRISPomyces-2–AAC(3)-IV (Addgene #61737), pdualrep2–APH(3′)-II [27] and pt67–ANT(3″). The MIC determination was performed as described for JW5503 in [19].

K. pneumoniae MAR14-3395 = assay: MIC, MDR clinical isolate; format: cell-based; conditions: Klebsiella pneumoniae, MAR143395; K. pneumoniae MAR14-3395, MDR clinical isolate (NDM-1 + OXA-244); read-out: MIC
Excerpt: (§2) The microbial strains used in this study were obtained from the collection of the Gause Institute of New Antibiotics. The control strains included in the analysis were S. aureus ATCC 29213, E. coli ATCC 25922, P. aeruginosa ATCC 27853, M. smegmatis ATCC 607. Clinical isolates E. coli MAR17-1350, K. pneumoniae APEX-5, K. pneumoniae MAR14-3395, and K. pneumoniae MAR18-1752 with multidrug resistance, including resistance to aminoglycosides were kindly provided by the Research Institute of Antimicrobial Chemotherapy (RIAC) of the Smolensk State Medical University, Smolensk. The microbial cultures were stored at −75 °C in trypticase soy broth (Becton, Dickinson, France) containing 10–15% glycerol. Storage was carried out in accordance with CLSI guidelines. Prior to experimentation, the bacterial strains were revived from cryopreservation by inoculating them onto trypticase soy agar (Becton, Dickinson, France) and incubating at (36 ± 1) °C for 16–24 h. Individual morphologically homogeneous colonies were then suspended in sterile physiological saline, and the turbidity of the suspension was adjusted to 0.5 McFarland units using a DEN-1 spectrophotometer (Biosan, Riga, Latvia), which corresponds to a concentration of 1.5 × 10^8 CFU/mL.
(§3) The samples were dissolved in sterile distilled water, depending on the physicochemical properties of the compounds under investigation, to a concentration of 10,000 µg/mL. Working solutions were then prepared by serial dilution, resulting in concentrations ranging from 64 µg/mL to 0.125 µg/mL.
(§4) Activity was evaluated by determining the minimum inhibitory concentration (MIC) values using the microdilution method in Mueller–Hinton Broth (Beckton and Dickinson, Le Pont-de-Claix, France), in accordance with the standard procedure for assessing the antimicrobial susceptibility of microorganisms.
(§5) The analysis was conducted in 96-well microtiter plates (Medpolymer, Saint Petersburg, Russia). The bacterial inoculum was introduced within 15 min of preparation. MIC values were determined after incubation for 15–18 h at (36 ± 1) °C. Microbial growth in the presence of the tested compounds was compared to the growth control (without exposure to the test samples). The MIC was defined as the lowest concentration at which visible microbial growth was inhibited.
(§6) To ensure the accuracy of the results, the control antibiotics kanamycin A, gentamycin, and tobramycin (Abcr GmbH, Karlsruhe, Germany) were included, along with standard reference strains: E. coli ATCC 25922. The MIC values for kanamycin A were determined as follows: E. coli ATCC 25922—1–4 µg/mL [22]. For gentamycin, the MIC values were E. coli ATCC 25922–0.25–1 µg/mL [23]. For tobramycin, the MIC values were E. coli ATCC 25922–0.25–1 µg/mL [23]. The MIC values of the reference strains were required to fall within the acceptable ranges specified in [24], provided that standard assay conditions were maintained.

E. coli MAR17-1350 = assay: MIC, MDR clinical isolate; format: cell-based; conditions: Escherichia coli, MAR171350; E. coli MAR17-1350, MDR clinical isolate (NDM-5); read-out: MIC
Excerpt: as §2, §3, §4, §5, §6

K. pneumoniae MAR18-1752 = assay: MIC, MDR clinical isolate; format: cell-based; conditions: Klebsiella pneumoniae, MAR181752; K. pneumoniae MAR18-1752, MDR clinical isolate (NDM-1); read-out: MIC
Excerpt: as §2, §3, §4, §5, §6

K. pneumoniae APEX-5 = assay: MIC, MDR clinical isolate; format: cell-based; conditions: Klebsiella pneumoniae, APEX5; K. pneumoniae APEX-5, MDR clinical isolate (NDM-16); read-out: MIC
Excerpt: as §2, §3, §4, §5, §6

P. aeruginosa ATCC 27853 = assay: MIC, broth microdilution; format: cell-based; conditions: Pseudomonas aeruginosa, ATCC27853, Table 1
Excerpt: as §2, §3, §4, §5, §6

S. aureus ATCC 29213 = assay: MIC, broth microdilution; format: cell-based; conditions: Staphylococcus aureus, ATCC29213, Table 1
Excerpt: as §2, §3, §4, §5, §6

E. coli JW5503 ApmR = assay: MIC against transformant carrying AAC(3)-IV; format: cell-based; conditions: Escherichia coli, JW5503APMR
Description: as §1

E. coli ATCC 25922 = assay: MIC, broth microdilution; format: cell-based, Escherichia coli; conditions: Escherichia coli, ATCC25922, Table 1, read-out: MIC
Excerpt: as §2, §3, §4, §5, §6

M. smegmatis ATCC 607 = assay: MIC, broth microdilution; format: cell-based, Mycobacterium smegmatis; conditions: Mycolicibacterium smegmatis, ATCC607, Table 1
Excerpt: as §2, §3, §4, §5, §6

| Compound | MIC (E. coli JW5503 kanS) | MIC (K. pneumoniae MAR14-3395) | MIC (E. coli MAR17-1350) | MIC (K. pneumoniae MAR18-1752) | MIC (K. pneumoniae APEX-5) | MIC (P. aeruginosa ATCC 27853) | MIC (S. aureus ATCC 29213) | MIC (E. coli JW5503 ApmR) | MIC (E. coli ATCC 25922) | MIC (M. smegmatis ATCC 607) |
| --- | --- | --- | --- | --- | --- | --- | --- | --- | --- | --- |
| CNC1C(OC2OC(CNCCN)C(N)C(O)C2O)OC2CC(N)C(OC3C(N)CC(N)C(O)C3O)OC2C1O (stereo not shown) [Compound 5a, 6″-((2-Aminoethyl-1)-amino)-6″-deoxyapramycin acetate] | 16 µg/mL | 4 µg/mL | 4 µg/mL | 4 µg/mL | 4 µg/mL | 8 µg/mL | 2 µg/mL | > 256 µg/mL | 2 µg/mL | 0.25 µg/mL |
| CNC1C(OC2OC(CNCCCN)C(N)C(O)C2O)OC2CC(N)C(OC3C(N)CC(N)C(O)C3O)OC2C1O (stereo not shown) [Compound 5b, 6″-((3-Aminopropyl-1)-amino)-6″-deoxyapramycin acetate] | 32 µg/mL | 8 µg/mL | 8 µg/mL | 8 µg/mL | 8 µg/mL | 16 µg/mL | 2 µg/mL | > 256 µg/mL | 2 µg/mL | 0.25 µg/mL |
| CNC1C(OC2OC(CNCCNC(=N)N)C(N)C(O)C2O)OC2CC(N)C(OC3C(N)CC(N)C(O)C3O)OC2C1O (stereo not shown) [Compound 8a, 6″-((2-Guanidinoethyl-1)-amino)-6″-deoxyapramycin acetate] | 8 µg/mL | 2 µg/mL | 4 µg/mL | 2 µg/mL | 1 µg/mL | 8 µg/mL | 0.5 µg/mL | > 256 µg/mL | 1 µg/mL | 0.125 µg/mL |
| CNC1C(OC2OC(CNCCCNC(=N)N)C(N)C(O)C2O)OC2CC(N)C(OC3C(N)CC(N)C(O)C3O)OC2C1O (stereo not shown) [Compound 8b, 6″-((3-Guanidinopropyl-1)-amino)-6″-deoxyapramycin acetate] | 16 µg/mL | 4 µg/mL | 4 µg/mL | 2 µg/mL | 2 µg/mL | 8 µg/mL | 0.5 µg/mL | > 256 µg/mL | 1 µg/mL | 0.125 µg/mL |
